Assays:
Assay type in all cases: cell-based
[1] = target: T1, BCRP (Homo sapiens, UniProt Q9UNQ0); assay: Flow cytometry, inhibition of mitoxantrone efflux in HEK-293 cells transfected with BCRP; conditions: 10 μM compound
T1 construct: expressed in transfected cells; host or cells: HEK-293 (ATCC CRL-1573), pcDNA3.1 expression vector (Invitrogen)
T1 sequence (Q9UNQ0 1-655): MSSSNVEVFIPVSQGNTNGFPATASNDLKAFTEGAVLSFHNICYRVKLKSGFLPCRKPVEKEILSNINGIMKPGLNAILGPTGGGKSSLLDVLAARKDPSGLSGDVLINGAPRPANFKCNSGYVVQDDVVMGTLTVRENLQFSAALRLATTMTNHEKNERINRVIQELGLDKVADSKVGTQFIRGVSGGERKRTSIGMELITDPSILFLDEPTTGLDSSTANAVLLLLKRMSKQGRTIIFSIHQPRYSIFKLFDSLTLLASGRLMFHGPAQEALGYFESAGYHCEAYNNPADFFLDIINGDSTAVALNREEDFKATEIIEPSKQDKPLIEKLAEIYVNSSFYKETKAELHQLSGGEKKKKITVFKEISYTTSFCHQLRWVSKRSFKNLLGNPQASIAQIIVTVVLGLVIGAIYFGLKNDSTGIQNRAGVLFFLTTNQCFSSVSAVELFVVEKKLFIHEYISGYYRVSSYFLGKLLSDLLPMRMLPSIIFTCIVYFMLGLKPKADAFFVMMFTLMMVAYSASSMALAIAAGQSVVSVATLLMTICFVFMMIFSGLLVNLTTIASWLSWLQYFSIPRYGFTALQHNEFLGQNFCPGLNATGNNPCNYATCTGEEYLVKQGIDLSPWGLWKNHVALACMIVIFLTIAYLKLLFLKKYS
Excerpt: (§1) The HEK-293 human fibroblast line (ATCC cell collection CRL-1573) is transfected with either BCRP (Robey R. W. et al. 2003, Br. J. Cancer 89(10) 1971-1978, [32]) or ABCC1, cloned into the pcDNA3.1 expression vector (Invitrogen), or with the empty pcDNA3.1 vector. The NIH3T3 cell line (ATCC CRL-1658) was stably transfected with pHaMDR1/A (Cardarelli et al. 1995 Cancer Res 55 1086-1091, [33]), which is a retroviral vector that expresses the wild-type MDR1 protein. The BHK-21 cell line (ATCC CCL-10) was transfected with MRP1 cloned into the pcDNA3.1 expression vector, or the empty pcDNA3.1 vector. The cells are maintained in culture in DMEM glutamax II (Invitrogen) supplemented with 10% of fetal bovine serum and 1% of penicillin/streptomycin. The data are processed with Sigmaplot V11 (http://www.systat.com/), and the equation for mathematical adjustment of the experimental data for calculating the IC50 values: f=a×(1−exp(−b×x)) (a=slope, b=intercept on the y-axis).
(§2) The cells expressing P-gp, BCRP and MRP, and their corresponding controls, are placed in the presence of 10 and 2 μM of mitoxantrone for the first two transporters and of 1 μM of daunorubicin for the 3rd. Substrate accumulation is carried out for 30 minutes at 37° C. in the presence or absence of varied concentrations of the molecules tested, at a final DMSO (dimethyl sulfoxide) concentration of 0.5%. After washing with PBS (phosphate buffered saline), the cells are incubated in medium containing the same concentrations of molecules tested as previously, for 1 h at 37° C. The intracellular fluorescence of mitoxantrone and daunorubicin anticancer agent is measured with the FACscan flow cytometer (Becton Dickinson, Mountain, View, Calif.). The drugs are excited at 488 nm. The emission of mitoxantrone is measured at 650 nm, whereas the emission of daunorubicin is measured at 530 nm. The effectiveness of the molecules tested is expressed by equation 1: % effectiveness=100×(FA−FBG)/(FC−FBG), where FA corresponds to the intracellular level of substrate measured in the cells overexpressing ABCG2 (corresponding to the lowest level of fluorescence in the absence of inhibitor), FC corresponds to the fluorescence in the control cells transfected with the empty vector (and therefore to the maximum accumulation of substrate in the cells) and FBG corresponds to the fluorescence measured in the absence of substrate and in the presence of inhibitor.
(§3) The inhibitory effect of the compounds is quantified by measuring, by flow cytometry, the efflux of an anticancer drug transported by the pump under consideration, i.e. mitoxantrone for P-gp and BCRP and daunorubicin for MRP1. It is compared with that of the reference product, reversin 121. The products are tested at 10 μM, then at 2 μM for those which block at least 80% of the efflux of mitoxantrone, and for some, a more complete concentration range is tested so as to establish the concentration value producing 50% inhibition, IC50, as indicated in FIG. 3.

[2] = target: T2, P-gp (Homo sapiens, UniProt P08183); assay: Kinetics of inhibition of daunorubicin efflux produced by P-gp (mode of inhibition); conditions: Lineweaver & Burke double reciprocal representation
T2 construct: expressed in transfected cells; host or cells: NIH3T3 (ATCC CRL-1658), stably transfected with retroviral vector pHaMDR1/A
T2 sequence (P08183 whole entry): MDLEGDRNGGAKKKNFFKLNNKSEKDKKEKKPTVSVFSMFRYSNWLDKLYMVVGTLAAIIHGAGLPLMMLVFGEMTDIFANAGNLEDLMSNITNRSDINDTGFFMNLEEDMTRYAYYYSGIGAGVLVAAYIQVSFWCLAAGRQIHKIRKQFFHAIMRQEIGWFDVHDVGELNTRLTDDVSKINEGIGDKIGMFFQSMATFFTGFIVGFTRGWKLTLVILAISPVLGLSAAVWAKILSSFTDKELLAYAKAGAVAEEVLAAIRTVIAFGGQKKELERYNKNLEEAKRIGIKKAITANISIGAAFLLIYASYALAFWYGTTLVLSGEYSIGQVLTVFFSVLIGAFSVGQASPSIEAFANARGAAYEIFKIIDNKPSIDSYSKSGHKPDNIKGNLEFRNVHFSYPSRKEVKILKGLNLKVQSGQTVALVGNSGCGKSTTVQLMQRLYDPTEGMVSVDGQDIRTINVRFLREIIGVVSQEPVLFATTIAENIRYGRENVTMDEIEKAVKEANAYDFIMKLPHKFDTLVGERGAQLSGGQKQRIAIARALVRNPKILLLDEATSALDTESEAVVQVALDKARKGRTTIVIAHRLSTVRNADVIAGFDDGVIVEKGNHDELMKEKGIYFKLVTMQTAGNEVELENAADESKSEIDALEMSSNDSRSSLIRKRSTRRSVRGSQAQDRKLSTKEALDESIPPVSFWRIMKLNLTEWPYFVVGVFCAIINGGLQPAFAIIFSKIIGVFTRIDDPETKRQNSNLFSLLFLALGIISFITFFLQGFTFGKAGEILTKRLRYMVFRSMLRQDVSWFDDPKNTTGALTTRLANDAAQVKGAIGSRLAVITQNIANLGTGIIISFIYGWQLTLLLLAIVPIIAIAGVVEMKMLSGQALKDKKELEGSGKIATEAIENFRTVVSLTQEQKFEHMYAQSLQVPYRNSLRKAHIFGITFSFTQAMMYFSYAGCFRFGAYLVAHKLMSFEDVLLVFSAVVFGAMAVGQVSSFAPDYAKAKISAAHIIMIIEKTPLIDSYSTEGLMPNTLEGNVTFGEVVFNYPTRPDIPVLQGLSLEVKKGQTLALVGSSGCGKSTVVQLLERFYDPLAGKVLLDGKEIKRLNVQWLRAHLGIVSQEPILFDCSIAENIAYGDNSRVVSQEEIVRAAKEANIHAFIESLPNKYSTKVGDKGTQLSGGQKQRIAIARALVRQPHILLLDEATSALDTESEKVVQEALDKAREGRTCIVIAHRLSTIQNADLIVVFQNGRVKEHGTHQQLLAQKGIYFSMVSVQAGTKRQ
Procedure: FIGS. 6A and 6B show the kinetics of inhibition of daunorubicin efflux produced by P-gp, with compound No. 6. The intracellular daunorubicin fluorescence is measured in the presence of increasing concentrations of No. 6, respectively 0 (circles), 0.12 μM (triangles), 0.22 μM (squares), 0.44 μM (diamonds) and 10 μM (upward-pointing triangles), corresponding to 0, 25, 50, 75 and 100% efflux inhibition effectiveness. FIG. 6A: direct representation, FIG. 6B, Lineweaver & Burke double reciprocal representation.
The intracellular concentration of fluorescent daunorubicin is measured at increasing daunorubicin concentrations, in the presence or absence of fixed concentrations of 0, 0.12 μM, 0.22 μm, 0.44 μM and 10 μM of compound No. 6 corresponding to 0%, 25%, 50%, 75% and 100% efflux inhibition effectiveness according to FIG. 3.

[3] = target: T2, P-gp; assay: Flow cytometry, inhibition of mitoxantrone efflux in NIH3T3 cells expressing P-gp
Excerpt: as §1, §2, §3

[4] = target: T3, MRP1 (Homo sapiens, UniProt P33527); assay: Flow cytometry, inhibition of daunorubicin efflux in cells transfected with MRP1; conditions: human, probe daunorubicin, 10 μM compound, read-out: % pump inhibition at 10 μM of compound, MRP1
T3 construct: expressed in transfected cells; host or cells: BHK-21 (ATCC CCL-10) with MRP1 in pcDNA3.1; HEK-293 transfected with ABCC1 in pcDNA3.1 is also described
T3 sequence (P33527 whole entry): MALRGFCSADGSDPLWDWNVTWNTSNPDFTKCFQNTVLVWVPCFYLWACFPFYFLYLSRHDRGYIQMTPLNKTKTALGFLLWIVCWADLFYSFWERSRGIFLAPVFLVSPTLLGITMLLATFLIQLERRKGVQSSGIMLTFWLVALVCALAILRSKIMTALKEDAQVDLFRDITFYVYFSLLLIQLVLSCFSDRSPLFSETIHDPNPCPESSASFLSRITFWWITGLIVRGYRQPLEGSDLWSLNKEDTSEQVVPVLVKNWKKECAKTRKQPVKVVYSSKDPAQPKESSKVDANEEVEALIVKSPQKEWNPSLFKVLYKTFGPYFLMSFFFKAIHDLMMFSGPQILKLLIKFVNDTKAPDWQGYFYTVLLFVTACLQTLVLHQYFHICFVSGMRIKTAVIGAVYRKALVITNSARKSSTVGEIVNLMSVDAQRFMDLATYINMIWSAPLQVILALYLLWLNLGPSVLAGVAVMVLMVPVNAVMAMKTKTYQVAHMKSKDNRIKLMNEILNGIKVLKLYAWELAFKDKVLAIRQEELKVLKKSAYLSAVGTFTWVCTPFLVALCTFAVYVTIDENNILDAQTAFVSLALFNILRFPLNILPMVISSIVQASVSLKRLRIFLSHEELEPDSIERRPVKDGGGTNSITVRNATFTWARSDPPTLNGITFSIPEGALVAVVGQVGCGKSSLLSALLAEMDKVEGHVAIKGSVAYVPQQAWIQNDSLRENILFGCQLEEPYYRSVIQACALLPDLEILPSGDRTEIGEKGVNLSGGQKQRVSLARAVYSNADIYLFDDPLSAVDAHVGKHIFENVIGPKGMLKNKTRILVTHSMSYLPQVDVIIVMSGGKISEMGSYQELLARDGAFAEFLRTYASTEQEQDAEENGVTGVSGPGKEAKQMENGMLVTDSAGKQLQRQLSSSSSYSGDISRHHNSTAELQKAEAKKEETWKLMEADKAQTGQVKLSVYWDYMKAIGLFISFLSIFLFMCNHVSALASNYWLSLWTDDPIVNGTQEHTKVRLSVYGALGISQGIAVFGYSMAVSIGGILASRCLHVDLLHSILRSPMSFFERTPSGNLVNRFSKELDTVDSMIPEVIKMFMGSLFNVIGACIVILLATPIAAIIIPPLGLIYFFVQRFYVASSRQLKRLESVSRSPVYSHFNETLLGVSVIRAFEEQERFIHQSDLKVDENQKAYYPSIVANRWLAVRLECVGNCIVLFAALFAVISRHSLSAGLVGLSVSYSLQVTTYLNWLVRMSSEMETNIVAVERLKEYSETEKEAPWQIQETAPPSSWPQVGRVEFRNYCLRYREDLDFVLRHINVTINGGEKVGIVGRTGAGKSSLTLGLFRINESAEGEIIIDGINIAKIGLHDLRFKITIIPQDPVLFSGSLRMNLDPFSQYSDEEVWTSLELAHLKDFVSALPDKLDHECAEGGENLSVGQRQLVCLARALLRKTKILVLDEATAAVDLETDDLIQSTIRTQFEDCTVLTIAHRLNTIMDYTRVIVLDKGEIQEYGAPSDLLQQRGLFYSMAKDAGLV
Excerpt: as §1, §2
The inhibitory effect of the compounds is quantified by measuring, by flow cytometry, the efflux of an anticancer drug transported by the pump under consideration, i.e. mitoxantrone for P-gp and BCRP and daunorubicin for MRP1. It is compared with that of the reference product, reversin 121. […]

[5] = test system: NIH3T3 cells expressing or not expressing P-gp; assay: Cytotoxicity test (MTT), cell survival after 72 h
Procedure: The cells are seeded in a proportion of 10 000 per well in 96-well plates and incubated for 24 hours at 37° C. under 5% CO2. Varied concentrations of compounds Nos 2, 3, 4, 5 and 6, up to 20 times the IC50, are then added. The cytotoxicity is evaluated colorinnetrically with 3-(4,5-dimethylthiazol-2-yl)-2,5-diphenyltetrazolium bromide (MTT).
Increasing concentrations of compound No. 4 or No. 6 are applied to NIH3T3 cells expressing or not expressing P-gp. The cell survival is measured after 72 h and is expressed as a percentage. At 10 times the half-maximum-effect concentration, these two compounds are not toxic. Above this, the toxicity of compound No. 4 remains negligible, while that of compound No. 6 remains limited.

mechanism of inhibition [2]: noncompetitive
inhibition at 1 h, 10 µM [4]: < 10%
SMILES: CC(C)(C)OC(=O)[C@H](CCCCNC(=O)OCc1ccccc1)NC[C@@H]1C[C@@H](OCc2ccccc2)CN1C(=O)OC(C)(C)C [No. 6, N^α-Boc-trans-L-4-Hyp(Bn)-ψ(CH2-NH)-L-Lys(Z)-OtBu]
% pump inhibition at 10 μM of compound, BCRP [1]: 42.3 ± 0.8%
IC50 for P-gp compared with that of reversin 121 [3]: seven times better
% pump inhibition at 10 μM of compound, P-gp ([3]; 10 μM compound, mitoxantrone efflux): 106.9 ± 23.0%
inhibition at 1 h, 0.12 µM ([3]; human, probe mitoxantrone, 0.12 μM compound, according to FIG. 3, read-out: efflux inhibition effectiveness): 25%
inhibition at 1 h, 0.44 µM ([3]; human, probe mitoxantrone, 0.44 μM compound, according to FIG. 3, read-out: efflux inhibition effectiveness): 75%
inhibition at 1 h, 10 µM ([3]; human, probe mitoxantrone, 10 μM compound, according to FIG. 3, read-out: efflux inhibition effectiveness): 100%
inhibition at 1 h, 0.22 μM ([3]; human, probe mitoxantrone, 0.22 μm compound, according to FIG. 3, read-out: efflux inhibition effectiveness): 50%
IC50 ([3]; mitoxantrone efflux, mathematical adjustment of experimental points): 220 ± 30 nM
cytotoxicity ([5]; above 10 times the half-maximum-effect concentration): limited
cytotoxicity ([5]; at 10 times the half-maximum-effect concentration): not toxic
